Measured values from patent US10472326B2, “PQSR modulators” (HELMHOLTZ-ZENTRUM FÜR INFEKTIONSFORSCHUNG GMBH, priority 2014, dated 2019).
pIC50: −log10 of the molar value. Entries after “also recorded” stand apart in the source; their conditions may differ. Like-named read-outs stand apart in the source and are kept apart here. Marks after values point to notes of the source that are not given here.

Key:
[1] = test system: P. aeruginosa infection; conditions: cited from earlier work
[2] = test system: P. aeruginosa infection; conditions: cited from earlier work; remark: listed apart in the source
[3] = test system: P. aeruginosa PA14; conditions: in cellulo; ref. [20]; strain not given; read-out: IC50, inhibition of virulence factor pyocyanin production; cited from earlier work
[4] = test system: Pseudomonas aeruginosa; conditions: cited from earlier work
[5] = test system: P. aeruginosa PA14; conditions: strain not given, cited from earlier work
[6] = test system: P. aeruginosa biofilm; conditions: background statement; cited from earlier work
[7] = test system: P. aeruginosa PA14; test: Determination of extracellular PQS levels; type: cell-based; conditions: compd. at 15 μM
Experimental: Quantification of PQS produced by P. aeruginosa PA14 was performed according to the method of Maurer et al.. For each sample, cultivation and sample work-up were performed in triplicates. Inhibition values of PQS formation were normalized to OD600.

[8] = test system: P. aeruginosa PA14; test: Pyocyanin assay; type: cell-based; conditions: for Reduction of Pyocyanin: PA14
Experimental: For analysis of pyocyanin formation, cultivation procedure was the same as for HHQ determination with the exception of using PPGAS medium. Pyocyanin produced by PA14 was quantified using the method of Essar et al. with some modifications, as described in detail by Klein et al.. Briefly, 900 μL of each culture were extracted with 900 μL of chloroform and 800 μL of the organic phase re-extracted with 250 μL of 0.2 M HCl. OD520 was measured in the aqueous phase using FLUOstar Omega (BMG Labtech, Ortenberg, Germany). For each sample, cultivation and sample work-up were performed in triplicates. Inhibition values of pyocyanin formation were normalized to OD600.

[9] = biological target: T1, PqsR (Pseudomonas aeruginosa, UniProt Q9I4X0); test: cell-based; conditions: read-out: Inhibition of PqsR stimulation induced by 50 nM PQS in the presence of test compd. (full inhibition = 1.00)
T1 construct: expressed in transfected cells; host or cells: E. coli DH5α carrying plasmid pEAL08-2
Experimental: The ability of the compounds to either stimulate or antagonize the PqsR-dependent transcription was analysed as previously described using a β-galactosidase reporter gene assay in E. coli expressing PqsR. Briefly, a culture of E. coli DH5α cells containing the plasmid pEAL08-2, which encodes PqsR under the control of the tac promoter and the β-galactosidase reporter gene lacZ controlled by the pqsA promoter, were co-incubated with test compound. Antagonistic effects of compounds were assayed in the presence of 50 nM PQS. After incubation, β-galactosidase activity was measured spectralphotometrically at OD420 nm using POLARstar Omega (BMG Labtech, Ortenberg, Germany) and expressed as percent stimulation of controls. For the determination of IC50 values, compounds were tested at least at eight different concentrations.

[10] = test system: clinical isolate MHH9639; test: Biofilm growth assay, clinical isolate MHH9639; type: cell-based, P. aeruginosa; conditions: added to 24 h old biofilms, final concentration 100 μM
[11] = test system: P. aeruginosa PA14; test: Biofilm growth assay, PA14; type: cell-based; conditions: added to 24 h old biofilms, final concentration 100 μM
Experimental: Static biofilms at the bottom of 96 well microtiter plates were grown with small modifications as previously described. In brief, overnight P. aeruginosa LB cultures of PA14 were adjusted to an OD600 of 0.002 with fresh medium and transferred into a half-area 96 well μClear plate (Greiner Bio-One, 100 μL/well). The plate was covered with an air-permeable foil and incubated at 37° C. in a chamber with humid atmosphere. After 24 h, a staining solution including Syto9 and propidium iodide (LIVE/DEAD BacLight Bacterial Viability kit, Molecular Probes/Invitrogen) and the test compound solved in DMSO was added to the biofilms (final concentration 100 μM, 1% DMSO (v/v)) and biofilms were further incubated for 24 h at 37° C. After in total 48 h, biofilm stacks were acquired in the center of each well (step size: 3 μm) using an automated confocal microscope (TCS SP8, Leica Microsystems) equipped with an ×40/1.10 water objective. The acquired image stacks were processed and analyzed with a customized analysis solution for the Developer XD2 (Definiens) based on a previously described algorithm. 3D-projections of the biofilms are visualized with the software IMARIS (version 7.6.5, Bitplane).

[12] = test system: Pseudomonas aeruginosa; conditions: cited from earlier work; remark: listed apart in the source

T1 sequence (Q9I4X0 whole entry): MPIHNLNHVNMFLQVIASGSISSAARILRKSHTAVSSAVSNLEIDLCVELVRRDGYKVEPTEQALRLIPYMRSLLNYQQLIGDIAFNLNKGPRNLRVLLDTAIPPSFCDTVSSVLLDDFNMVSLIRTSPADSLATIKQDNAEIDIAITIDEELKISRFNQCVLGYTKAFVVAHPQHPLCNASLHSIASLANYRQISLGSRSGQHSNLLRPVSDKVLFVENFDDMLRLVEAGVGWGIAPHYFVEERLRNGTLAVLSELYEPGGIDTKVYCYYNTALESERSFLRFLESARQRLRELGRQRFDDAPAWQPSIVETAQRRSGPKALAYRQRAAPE

Row | Compound | inhibition at 0.05 µM [9] [%] | inhibition at 5 µM [9] [%] | also measured
1 | CCCCCCCc1[nH]c2ccc([N+](=O)[O-])cc2c(=O)c1C(N)=O [2-heptyl-6-nitro-4-oxo-1,4-dihydroquinoline-3-carboxamide] |  |  | Toxicity in animal model ([1]; in vivo): no sign of toxicity; Protection of nematodes from lethal P. aeruginosa infection ([1]; ref. [20]): strong protection; Protection of larvae from lethal P. aeruginosa infection ([2]; at 22 nM corresponding to 7.3 ng g^−1 body weight, ref. [20]): full protection; Toxicity in animal model ([2]; in vivo): no sign of toxicity; pIC50 [3]: 5.70; Reduction of HHQ production ([4]; at 15 μM, ref. [20]): 54%; Reduction of PQS production ([5]; at 15 μM, ref. [20]): 37%; Inhibition of biofilm formation [6]: not being able to inhibit biofilm formation
2 | CCCCCCCc1[nH]c2ccc([N+](=O)[O-])cc2c(=O)c1CO [Compound 1, 2-heptyl-3-(hydroxymethyl)-6-nitroquinolin-4(1H)-one] | 45 | 100 | Reduction of PQS [7]: 33%; Reduction of Pyocyanin ([8]; compd. at 15 μM): 83%
3 | CCCCCCCc1[nH]c2ccc([N+](=O)[O-])cc2c(=O)c1C(=O)OCC [Compound 2, ethyl 2-heptyl-6-nitro-4-oxo-1,4-dihydroquinoline-3-carboxylate] | -8 | 20 | 
4 | CCOCCCCc1[nH]c2ccc([N+](=O)[O-])cc2c(=O)c1C(=O)OCC [Compound 3] | 2 | 27 | 
5 | CCCCCCCc1[nH]c2ccccc2c(=O)c1C(=O)OCC [Compound 4] | 18 | 32 | 
6 | CCCCCCCc1[nH]c2ccncc2c(=O)c1C(=O)OCC [Compound 5] | 24 | 76 | 
7 | Nc1cccc(F)c1C(=O)O [Compound 6FABA] |  |  | pIC50 ([4]; PqsA inhibitor, refs [14, 16, 22], read-out: IC50, production of signal molecules HHQ and PQS): ~4.00
8 | CCCCCCCc1[nH]c2ccccc2c(=O)c1CO [Compound 6] | 5 | 28 | 
9 | CCCCCCCc1[nH]c2ccncc2c(=O)c1C(=O)O [Compound 7, 2-heptyl-4-oxo-1,4-dihydro-1,6-naphthyridine-3-carboxylic acid] | 6 | 20 | 
10 | CCCCCCCc1[nH]c2ccccc2c(=O)c1C(=O)NO [Compound 8] | 15 | 29 | pIC50 ([8]; Pseudomonas aeruginosa, PA14, read-out: IC50, production of the virulence factor pyocyanin): ~4.92; Reduction of Pyocyanin ([8]; determined at 12.5 μM): 51^e %; Biofilm formation / biovolume of the biofilms [10]: strongly inhibited; also recorded: markedly reduced; Biofilm formation / biovolume of the biofilms [11]: strongly inhibited; also recorded: markedly reduced
11 | CCCCCCCc1[nH]c2ccccc2c(=O)c1[N+](=O)[O-] [Compound 9, 2-heptyl-3-nitroquinolin-4(1H)-one] | 14 | 17 | 
12 | CCCCCCCc1[nH]c2ccc([N+](=O)[O-])cc2c(=O)c1C(=O)NO [Compound 10, 2-heptyl-N-hydroxy-6-nitro-4-oxo-1,4-dihydroquinoline-3-carboxamide] | 30 | 78 | Reduction of Pyocyanin ([8]; determined at 12.5 μM): 57^e %
13 | CCCCCCCc1[nH]c2ccc([N+](=O)[O-])cc2c(=O)c1C(=O)O [Compound 12, 2-heptyl-6-nitro-4-oxo-1,4-dihydroquinoline-3-carboxylic acid] | 11 | 34 | 
14 | CCCCCCCc1cc(=O)c2cc(C(F)(F)F)ccc2n1C [Ref. 1, 2-heptyl-1-methyl-6-(trifluoromethyl)quinolin-4(1H)-one, reference compound] | 31 | 100 | Reduction of PQS [7]: 8.9%; Reduction of Pyocyanin ([8]; compd. at 15 μM): 58%
15 | CCCCCOCc1cc(=O)c2cc(C(F)(F)F)ccc2[nH]1 [Ref. 4, 2-(Pentyloxymethyl)-6-(trifluoromethyl)quinolin-4(1H)-one, reference compound] | 29 | 100 | Reduction of PQS [7]: 21%; Reduction of Pyocyanin ([8]; compd. at 15 μM): 29%
16 | CCCCCCCc1cc(=O)c2cnccc2[nH]1 [Ref. 9, 2-Heptyl-1,6-naphthyridin-4(1H)-one, reference compound] | 8 | 2 | 
17 | COC(=O)c1ccccc1N [methyl anthranilate] |  |  | Production of the virulence factor elastase [12]: inhibit; PQS formation ([5]; at millimolar concentrations, ref. [12]): inhibit PQS formation
